Data taken from patent US11466007B2, “Substituted lactams showing serotonin 5-HT receptor activity” (Sumitomo Pharma Co., Ltd., priority 2018, dated 2022).

How the values were obtained:
human D2 receptor = human D2 receptor (Homo sapiens (Human), UniProt P14416); experiment: Test 1: binding activity for human D2 receptor ([3H]Spiperone); conditions: for Ki: CHO cell membrane fraction, [3H]Spiperone; for D2 Ki/5-HT1A Ki: ratio of D2 Ki to 5-HT1A Ki; for D2 Ki/5-HT2A Ki: ratio of D2 Ki to 5-HT2A Ki
Procedure: (§1) Test 1: Evaluation of Binding Activity for Human 5-HT1A Receptor, Human 5-HT2A Receptor, and Human D2 Receptor
(§2) Binding affinity of the present compound for human 5-HT1A receptor, human 5-HT2A receptor, and human D2 receptor was measured by the following procedures.
(§3) Each mixture was incubated at room temperature for 60 minutes. Then, the mixture was added quickly on a glassfiber filter plate (Multiscreen FB, Millipore, Inc.) coated with 0.3% aqueous polyethylenimine, and vacuum-filtered. Radioactivity remaining on the filter was measured with a liquid scintillation counter (PerkinElmer, Inc.). Binding inhibition rate was calculated from the following formula.
(§4) Ki of each compound was calculated from the following formula. Binding inhibition constant (Ki)=IC50/(1+S/Kd) wherein S is concentration of ligand; Kd is a binding dissociation constant of ligand to membrane, which is calculated from a saturated binding experiment conducted with the same cell membrane. A small Ki value means strong binding ability to a receptor.

human 5-HT1A receptor [1] = biological target: T1, human 5-HT1A receptor (Homo sapiens (Human), UniProt P08908); experiment: Test 2: agonist activity for human 5-HT1A receptor ([35S]GTPγS binding); format: biochemical; conditions: agonist activity in the presence of 10 μM compound, relative to 100 μmol/L 5-HT
Procedure: Test 2: Evaluation of Agonist Activity for Human 5-HT1A Receptor
CHO cell membrane fraction in which human 5-HT1A receptor was expressed as used in Test 1 was purchased. To a buffer containing guanosine diphosphate were added a test compound dissolved in DMSO, each receptor membrane sample diluted with buffer, and [^35S] Guanosine 5′-O-[gamma-thio]triphosphate (GTPγS). The mixture was incubated at room temperature for 60 minutes. Then, the mixture was added quickly on a glassfiber filter plate (Multiscreen FB, Millipore, Inc.), and vacuum-filtered. Radioactivity remaining on the […] was measured with a liquid scintillation counter. Agonist activity was calculated from the following formula.

[2] = Test 4: metabolic stability test in human hepatic microsome; format: in vitro ADME; conditions: 0.1 mg/mL microsome, 0.1 μmol/L compound, NADPH, 37° C., 30 minutes
Procedure: Test 4: Metabolic Stability Test in Human Hepatic Microsome
The stability of the present compound in human hepatic microsome metabolism was evaluated as mentioned below. Human hepatic microsome was obtained from Xenontech. Human hepatic microsome, NADPH, and each test compound were mixed in 25 mmol/L phosphate buffer solution (pH 7.4) to reach the following concentrations as shown below, and the mixture was incubated at 37° C. for 30 minutes. • Human hepatic microsome: 0.1 mg/mL • NAPDH: 3.2 mmol/L • Test compound: 0.1 μmol/L
The residual ratio of the test compound in each sample after 30 minutes was measured by LC-MS, and the metabolic stability in human hepatic microsome was calculated from the following formula. Metabolic stability in human hepatic microsome (mL/min/mg protein)=−LN(residual ratio)/30/0.1

human 5-HT1A receptor [3] = biological target: T1, human 5-HT1A receptor; experiment: Test 1: binding activity for human 5-HT1A receptor ([3H]8-OH-DPAT); conditions: CHO cell membrane fraction
Procedure: as §1, §2, §3
as §4, with “IC50 value was calculated by Hill analysis (Physiology, 1910, 40, 190-200). Ki of” for “Ki of”

P-gp (MDR1) = P-gp (MDR1) (Homo sapiens (Human), UniProt P08183); experiment: Test 9: P-gp substrate property (NFR, MDCKII and MDR1-MDCKII cells); format: in vitro ADME; conditions: ratio of Papp B-A/Papp A-B in MDR1-MDCKII cells to that in MDCKII cells
Procedure: Evaluation test for binding was carried out as follows with the CHO cell membrane fraction in which human target receptor was expressed. […] Each mixture was incubated at room temperature, added quickly on a glassfiber filter plate (Multiscreen FB, Millipore, Inc.), and vacuum-filtered. Radioactivity remaining on the filter was measured with a liquid scintillation counter (PerkinElmer, Inc.). Binding inhibition rate was calculated from the following formula.
NFR (Net Flux Ratio), which is an index of P-gp substrate property, can be calculated as follows. MDCKII (Madin-Darby canine kidney strain II) cells and MDR1-MDCKII cells in which MDR1 (multidrug resistance protein 1) was overexpressed were used to measure an apparent permeability coefficient (Papp A-B) from lumen (A) to basement membrane (B) and an apparent permeability coefficient (Papp B-A) from basement membrane (B) to lumen (A) of both MDCKII cells and MDR1-MDCKII cells. NFR (Net Flux Ratio) was calculated from the ratio between Ratio (Papp B-A/Papp A-B) of an apparent permeability coefficient of MDR1-MDCKII cells and Ratio of an apparent permeability coefficient of MDCKII cells.

Sequence of human D2 receptor (P14416 whole entry): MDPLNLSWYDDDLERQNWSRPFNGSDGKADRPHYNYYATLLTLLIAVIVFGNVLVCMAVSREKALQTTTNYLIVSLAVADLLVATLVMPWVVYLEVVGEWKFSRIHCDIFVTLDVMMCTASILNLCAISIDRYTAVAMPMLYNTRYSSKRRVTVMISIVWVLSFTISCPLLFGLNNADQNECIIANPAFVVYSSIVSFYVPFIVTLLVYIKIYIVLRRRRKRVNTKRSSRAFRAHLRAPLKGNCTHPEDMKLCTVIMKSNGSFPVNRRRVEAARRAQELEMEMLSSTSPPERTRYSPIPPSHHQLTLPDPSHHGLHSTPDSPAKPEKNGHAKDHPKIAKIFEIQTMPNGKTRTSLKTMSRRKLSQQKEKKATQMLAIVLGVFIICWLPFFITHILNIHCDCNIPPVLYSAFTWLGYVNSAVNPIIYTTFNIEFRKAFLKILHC
T1 sequence (P08908 whole entry): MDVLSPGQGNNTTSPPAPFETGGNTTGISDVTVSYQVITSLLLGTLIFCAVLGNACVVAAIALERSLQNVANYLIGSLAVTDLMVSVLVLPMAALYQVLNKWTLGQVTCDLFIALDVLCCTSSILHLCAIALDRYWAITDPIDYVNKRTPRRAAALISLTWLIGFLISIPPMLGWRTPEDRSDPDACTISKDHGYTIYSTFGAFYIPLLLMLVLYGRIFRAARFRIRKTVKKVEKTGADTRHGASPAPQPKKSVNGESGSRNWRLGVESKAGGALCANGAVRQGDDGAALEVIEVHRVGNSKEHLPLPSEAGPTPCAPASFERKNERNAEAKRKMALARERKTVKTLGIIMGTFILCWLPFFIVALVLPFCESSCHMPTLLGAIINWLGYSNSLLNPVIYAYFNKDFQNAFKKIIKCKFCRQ
Sequence of P-gp (MDR1) (P08183 whole entry, species assumed): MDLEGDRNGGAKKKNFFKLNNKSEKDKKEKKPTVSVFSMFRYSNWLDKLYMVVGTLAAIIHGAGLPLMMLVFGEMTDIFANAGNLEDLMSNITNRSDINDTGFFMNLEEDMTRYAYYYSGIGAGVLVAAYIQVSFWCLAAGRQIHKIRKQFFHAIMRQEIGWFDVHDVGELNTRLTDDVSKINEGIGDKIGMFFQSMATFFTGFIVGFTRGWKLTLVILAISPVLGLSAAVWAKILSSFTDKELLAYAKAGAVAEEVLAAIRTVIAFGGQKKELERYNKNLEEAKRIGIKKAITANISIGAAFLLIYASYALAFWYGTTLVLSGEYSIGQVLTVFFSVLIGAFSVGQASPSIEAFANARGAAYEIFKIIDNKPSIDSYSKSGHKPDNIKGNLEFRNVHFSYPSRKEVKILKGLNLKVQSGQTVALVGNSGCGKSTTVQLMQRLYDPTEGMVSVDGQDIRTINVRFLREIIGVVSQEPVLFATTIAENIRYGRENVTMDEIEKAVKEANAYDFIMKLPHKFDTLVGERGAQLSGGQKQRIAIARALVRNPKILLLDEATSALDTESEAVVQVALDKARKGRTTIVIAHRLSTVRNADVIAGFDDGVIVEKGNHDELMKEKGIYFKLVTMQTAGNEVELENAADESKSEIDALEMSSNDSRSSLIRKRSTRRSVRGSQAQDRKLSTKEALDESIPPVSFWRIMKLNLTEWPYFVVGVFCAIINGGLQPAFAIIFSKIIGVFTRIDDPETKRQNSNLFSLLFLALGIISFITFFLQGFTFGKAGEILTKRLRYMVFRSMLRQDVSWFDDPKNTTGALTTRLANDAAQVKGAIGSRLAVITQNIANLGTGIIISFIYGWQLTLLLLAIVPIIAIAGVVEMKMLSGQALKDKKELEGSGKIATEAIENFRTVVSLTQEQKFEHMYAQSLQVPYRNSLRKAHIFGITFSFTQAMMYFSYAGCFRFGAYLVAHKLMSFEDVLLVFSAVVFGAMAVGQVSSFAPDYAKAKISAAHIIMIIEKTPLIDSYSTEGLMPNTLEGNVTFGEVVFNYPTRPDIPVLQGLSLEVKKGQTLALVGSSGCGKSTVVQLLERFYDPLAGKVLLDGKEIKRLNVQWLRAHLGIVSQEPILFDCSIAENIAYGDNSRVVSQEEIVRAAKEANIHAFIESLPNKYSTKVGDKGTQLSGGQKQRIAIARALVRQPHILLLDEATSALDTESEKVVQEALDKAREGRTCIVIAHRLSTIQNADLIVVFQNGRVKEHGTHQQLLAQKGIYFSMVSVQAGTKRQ

SMILES | Metabolic stability in human hepatic microsome [2] | also measured
COc1cc2c(cn1)C(=O)N(CCN1CCC(c3noc4ccccc34)CC1)CC2 [Example 20] | 0.091 mL/min/mg protein | Ki (human D2 receptor): 1.89 µM; 5-HT1A agonist activity Emax (human 5-HT1A receptor [1]): 52%; Ki (human 5-HT1A receptor [3]): 0.00077 µM
Cn1cnc2c1CCN(CCN1CCN(c3nsc4ccccc34)CC1)C2=O [Example 54] | <0.01 mL/min/mg protein | NFR (Net Flux Ratio) (P-gp (MDR1)): 6.6
Cn1ncc2c1C(=O)N(CCN1CCN(c3nsc4ccccc34)CC1)CC2 [Example 59] |  | D2 Ki/5-HT1A Ki (human D2 receptor): 63; NFR (Net Flux Ratio) (P-gp (MDR1)): 1.1
Cn1ccc2c1CCN(CCN1CCC(c3noc4ccccc34)CC1)C2=O [Example 60] | 0.018 mL/min/mg protein | D2 Ki/5-HT1A Ki (human D2 receptor): 19; NFR (Net Flux Ratio) (P-gp (MDR1)): 1.5
Cn1nc(Br)c2c1CCN(CCN1CCN(c3nsc4ccccc34)CC1)C2=O [Example 69] |  | Ki (human D2 receptor): 0.36 µM; Emax at 10 µM (human 5-HT1A receptor [1]): 45%; Ki (human 5-HT1A receptor [3]): 0.0104 µM
Cn1ncc2c1C(=O)N(CCN1CCC(c3noc4ccccc34)CC1)CC2 [Example 96, 6-{2-[4-(1,2-Benzoisoxazol-3-yl)piperidin-1-yl]ethyl}-1-methyl-1,4,5,6-tetrahydro-7H-pyrazolo[3,4-c]pyridin-7-one] | 0.019 mL/min/mg protein | D2 Ki/5-HT1A Ki (human D2 receptor): 9; D2 Ki/5-HT2A Ki (human D2 receptor): 14
Cn1cnc2c1CCCN(CCN1CCC(c3noc4ccccc34)CC1)C2=O [Example 101, 5-{2-[4-(1,2-Benzoisoxazol-3-yl)piperidin-1-yl]ethyl}-1-methyl-5,6,7,8-tetrahydroimidazo[4,5-c]azepin-4(1H)-one] |  | D2 Ki/5-HT1A Ki (human D2 receptor): 17
O=C1c2cnc(OC3COC3)cc2CCN1CCN1CCN(c2nsc3ccccc23)CC1 [Example 111, 2-{2-[4-(1,2-Benzoisothiazol-3-yl)piperazin-1-yl]ethyl}-6-[(oxetan-3-yl)oxy]-3,4-dihydro-2,7-naphthyridin-1(2H)-one] |  | D2 Ki/5-HT2A Ki (human D2 receptor): 530
Cc1cncc2c1CCN(CCN1CCN(c3noc4ccccc34)CC1)C2=O [Example 137] | <0.05 mL/min/mg protein | D2 Ki/5-HT1A Ki (human D2 receptor): 5.8
COc1ccc2onc(C3CCN(CCN4CCc5cccnc5C4=O)CC3)c2c1 [Example 142] |  | D2 Ki/5-HT2A Ki (human D2 receptor): >61.0
O=C1c2nc(Cl)ccc2CCN1CCN1CCC(c2noc3ccccc23)CC1 [Example 146] | <0.05 mL/min/mg protein | NFR (Net Flux Ratio) (P-gp (MDR1)): 2.3
CC(C)n1ncc2c1CCN(CCN1CCC(c3noc4ccccc34)CC1)C2=O [Example 159] | <0.05 mL/min/mg protein | 
O=C1c2cnn(C3CC3)c2CCN1CCN1CCN(c2nsc3ccccc23)CC1 [Example 160] | 0.13 mL/min/mg protein | 
O=C1c2cnn(C3CC3)c2CCN1CCN1CCC(c2noc3ccccc23)CC1 [Example 161] | <0.05 mL/min/mg protein | 
CC(C)c1nc2c(o1)C(=O)N(CCN1CCC(c3noc4ccccc34)CC1)CC2 [Example 164] | 0.097 mL/min/mg protein | 
Cc1cc2c(n1C)CCCN(CCN1CCC(c3noc4ccccc34)CC1)C2=O [Example 166] | <0.05 mL/min/mg protein | 
Cn1ccc2c1CCN(CCN1CCN(c3noc4ccccc34)CC1)C2=O [Example 170] | <0.05 mL/min/mg protein | 
Cc1c2c(nn1C)CCN(CCN1CCN(c3noc4ccccc34)CC1)C2=O [Example 171] | <0.05 mL/min/mg protein | 
COc1ncc2c(n1)CCN(CCN1CCC(c3noc4ccccc34)CC1)C2=O [Example 176] | <0.05 mL/min/mg protein | 
Cc1ncc2c(=O)n(CCN3CCC(c4noc5ccccc45)CC3)ccc2n1 [Example 194, 6-{2-[4-(1,2-Benzoisoxazol-3-yl)piperidin-1-yl]ethyl}-2-methylpyrido[4,3-d]pyrimidin-5(6H)-one] | <0.05 mL/min/mg protein | 

Now from value to compound, other results behind:

Metabolic stability in human hepatic microsome [2] | SMILES | also measured
0.095 mL/min/mg protein | COc1ncc2c(n1)CCN(CCN1CCN(c3nsc4ccccc34)CC1)C2=O [Example 177] | 
<0.05 mL/min/mg protein | Cc1ccc2c(n1)C(=O)N(CCN1CCN(c3noc4ccccc34)CC1)CC2 [Example 183] | 
<0.05 mL/min/mg protein | Cc1ccc2c(n1)C(=O)N(CCN1CCC(c3noc4ccccc34)CC1)CC2 [Example 184] | 
<0.05 mL/min/mg protein | CCc1ccc2c(n1)C(=O)N(CCN1CCC(c3noc4ccccc34)CC1)CC2 [Example 185] | NFR (Net Flux Ratio) (P-gp (MDR1)): 2.4
<0.05 mL/min/mg protein | O=C1c2nc(F)ccc2CCN1CCN1CCC(c2noc3ccccc23)CC1 [Example 188, 7-{2-[4-(1,2-Benzoisoxazol-3-yl)piperidin-1-yl]ethyl}-2-fluoro-6,7-dihydro-1,7-naphthyridin-8(5H)-one] | 
<0.05 mL/min/mg protein | O=C1c2cn[nH]c2CCN1CCN1CCC(c2noc3ccccc23)CC1 [Example 189, 5-{2-[4-(1,2-Benzoisoxazol-3-yl)piperidin-1-yl]ethyl}-1,5,6,7-tetrahydro-4H-pyrazolo[4,3-c]pyridin-4-one] | 
<0.05 mL/min/mg protein | O=C1c2ncoc2CCN1CCN1CCC(c2noc3ccccc23)CC1 [Example 190, 5-{2-[4-(1,2-Benzoisoxazol-3-yl)piperidin-1-yl]ethyl}-6,7-dihydro[1,3]oxazolo[4,5-c]pyridin-4(5H)-one] | 
<0.05 mL/min/mg protein | O=C1c2nc[nH]c2CCN1CCN1CCC(c2noc3ccccc23)CC1 [Example 191, 5-{2-[4-(1,2-Benzoisoxazol-3-yl)piperidin-1-yl]ethyl}-6,7-dihydro[1,3]imidazolo[4,5-c]pyridin-4(5H)-one] | 
<0.05 mL/min/mg protein | O=C1c2c(Br)n[nH]c2CCN1CCN1CCC(c2noc3ccccc23)CC1 [Example 192, 5-{2-[4-(1,2-Benzoisoxazol-3-yl)piperidin-1-yl]ethyl}-3-bromo-1,5,6,7-tetrahydro-4H-pyrazolo[4,3-c]pyridin-4-one] | 
